Results from ChEMBL document CHEMBL1150188, “Chemistry of Sponges, X. New Sesquiterpenes from a Marine Sponge of the Genus Eurypon” (J Nat Prod, 1990).
Activity calls are given as the source filed them. The rule behind the calls is not given here.

Test system: Escherichia coli
Experiment: Antimicrobial activity against Escherichia coli at 100 ug/disk by standard disk assay
Type: functional, organism-based

**Q.** With `CC1(C)C[C@@H]2C3=C[C@@H](O)C[C@](C)(CC[C@@H]21)C3` as the compound, how does the Activity read?
**A.** Active
